Results published in PMC12589998, “Development and validation of a UHPLC-QqQ-MS/MS method for simultaneous determination of fifteen major components from Oroxyli seed extract in rat plasma and its application in the pharmacokinetic study” (Frontiers in Pharmacology, 2025).
Entries after “also recorded” stand apart in the source; their conditions may differ. Read-outs that look alike come from different tables or passages of the source. Blank lines part the entries; values can stand above or below the molecule they belong to.

Assays:
[1] = Stability of the analytes in rat plasma samples under storage conditions; format: physicochemical; settings: n = 6
Experimental: The bioanalytical method validation was evaluated for specificity, linearity, sensitivity, precision and accuracy, recovery, matrix effect, and stability to ensure compliance with the U.S. Food and Drug Administration (FDA) guidance on precise quantitative analysis ([Center for Drug Evaluation and Research of the U.S., 2018]). The assessment of specificity was conducted by comparing the chromatograms obtained from blank plasma, blank plasma spiked with the target components, and samples gathered following the oral administration of OS extract. Calibration curves were constructed by plotting the ratio for the peak area of the analyte to IS versus the concentration, with 1/x^2 serving as the weighting factor. The lower limit of quantification (LLOQ) was defined as the concentration at which a signal to noise ratio of […] 10 was achievable. The evaluation of precision and accuracy involved the analysis of six QC samples, both within a single day and over 3 consecutive days. Accuracy was expressed as the relative error (RE), whereas precision was gauged via relative standard deviation (RSD). Extraction recovery was ascertained by juxtaposing the responses of analytes in extracted samples against those in samples that were spiked post-extraction. The matrix effect was scrutinized by determining the ratio of the responses of the analytes in post-extraction spiked samples to those in the mixed standard solution. The stability of the analytes in plasma samples was explored under diverse conditions: encompassing a 12-h period in an autosampler, a 4-h interval at room temperature, three cycles of freezing–thawing, and a 7-day duration at −80 °C.
The retention times of the analyte peaks were consistent with those in the spiked samples. […] The LLOQs for chrysin, chrysin-7-O-β-D-glucuronide, hispidulin, wogonoside, quercetin, quercetin-7-O-β-D-glucoside, baicalin, baicalein, acacetin, oroxin A, oroxin B, oroxylin A, oroxylin A-7-O-β-D-glucuronide, apigenin, and scutellarein were 1.0, 2.0, 1.0, 0.3, 1.0, 0.1, 9.0, 6.0, 0.3, 6.0, 4.0, 1.0, 2.0, 0.5, and 0.3 ng/mL, respectively. In Supplementary Table S2, the RE for accuracy is between −13.77% and 12.55%, and the RSD for precision is below 14.55% (both intra- and inter-day). […] The matrix effect varied from 60.15% to 115.53%, with RSD values below 10.54%. In Supplementary Table S4, the RSD values for stability of the analytes are found to be lower than 13.98%, meaning that these components were stable under the following conditions: encompassing a 12-h period in an autosampler, a 4-h interval at room temperature, three cycles of freezing and thawing, and a 7-day duration at −80 °C.

[2] = Pharmacokinetic study in rats after oral administration of OS extract (UHPLC-QqQ-MS/MS of plasma); format: in vivo, rat
Experimental: The UHPLC-QqQ-MS/MS system consisted of a 1290 UHPLC and a 6470 mass spectrometer (Agilent Technologies). Chromatographic separation was realized on utilizing an ACQUITY UPLC BEH C18 column (2.1 × 100 mm, 1.7 μm) maintained at 35 °C. The mobile phase consisting of 0.1% formic acid in water (A) and acetonitrile (B) was utilized with the elution program set at 0 min–1 min, 5% B–30% B; 1 min–4 min, 30% B– 50% B; 4 min–8 min, and 50% B–90% B. The injection volume was 5 μL, and the flow rate was 0.3 mL/min. The mass spectrometry parameters in the negative ion mode, gas temperature, flow rate, and nebulizer pressure were 300 °C, 7 L/min, and 35 psi, respectively. The mass spectra properties of the 15 analytes and the IS are illustrated in Table 1.
To 100 μL of the plasma sample, 20 μL of methanol, 20 μL of IS solution (methylparaben, 1 μg/mL), and 5 μL of formic acid were added and vortexed for a duration of 2 min. Subsequently, the mixture underwent extraction with 800 μL of acetonitrile for 3 min. Following 10 min of centrifugation at 12,000 g, the supernatant was collected and evaporated to dryness under N2 to obtain the residue. Finally, the residue was reconstituted in 50% methanol (100 μL) and utilized for analysis.
Before initiating the study, six male SD rats underwent a 12-h fasting period, during which they were granted unrestricted access to water. Then, the rats were administered an oral dose of 3 g/kg of the OS extract, which had been dissolved in 0.5% CMC-Na aqueous solution. Blood samples, approximately 200 μL each, were collected at various time points: before administration and at 0.03, 0.08, 0.17, 0.25, 0.5, 0.75, 1, 2, 4, 6, 8, 10, 12, 24, 36, and 48 h post-administration. Following 10 min of centrifugation at 6,000 g, the resultant samples were stored at −80 °C.
The developed method was effectively applied to study the pharmacokinetics in rats following oral administration of the OS extract. […] This was likely due to their low concentrations in the OS extract. Ultimately, nine components (chrysin, chrysin-7-O-β-D-glucuronide, baicalin, baicalein, oroxin A, oroxin B, oroxylin A, oroxylin A-7-O-β-D-glucuronide, and scutellarein) were successfully fitted with pharmacokinetic parameters. The average plasma concentration–time profiles of these substances are depicted in Figure 3. […] All data were presented as the mean ± standard deviation (Mean ± SD).

[3] = spiked concentration 1600 ng/mL
[4] = male, SD, rat, in vivo, po, 3 g/kg
[5] = spiked concentration 6400 ng/mL
[6] = male, SD, 3 g/kg, rat plasma collected 0.5 h after oral administration of the OS extract, read-out: Concentration printed in MRM chromatogram of plasma sample (Figure 2C)
[7] = male, rat plasma, oral 3 g/kg OS extract, n = 6, mean ± SD, read-out: AUC(0-t)
[8] = male, rat plasma, oral 3 g/kg OS extract, n = 6, mean ± SD, read-out: AUC(0-∞)
[9] = male, rat plasma, oral 3 g/kg OS extract, n = 6, mean ± SD, read-out: Cmax
[10] = male, rat plasma, oral 3 g/kg OS extract, n = 6, mean ± SD, read-out: T1/2 (converted)
[11] = male, rat plasma, oral 3 g/kg OS extract, n = 6, mean ± SD, read-out: Tmax
[12] = spiked concentration 2000 ng/mL
[13] = spiked concentration 32000 ng/mL

Measured, -80°C for 7 days ([1]; spiked concentration 10 ng/mL): 9.25 ± 0.47 ng/mL
Measured, Autosampler for 12 h ([1]; spiked concentration 10 ng/mL): 11.26 ± 1.24 ng/mL
Measured, Room temperature for 4 h ([1]; spiked concentration 10 ng/mL): 10.87 ± 0.54 ng/mL
Measured, Three freeze-thaw cycles ([1]; spiked concentration 10 ng/mL): 9.15 ± 0.40 ng/mL
Measured, -80°C for 7 days ([1]; spiked concentration 100 ng/mL): 91.73 ± 5.32 ng/mL
Measured, Autosampler for 12 h ([1]; spiked concentration 100 ng/mL): 101.85 ± 8.18 ng/mL
Measured, Room temperature for 4 h ([1]; spiked concentration 100 ng/mL): 99.57 ± 5.36 ng/mL
Measured, Three freeze-thaw cycles ([1]; spiked concentration 100 ng/mL): 90.99 ± 3.81 ng/mL
Measured, -80°C for 7 days [1, 3]: 1539.20 ± 116.03 ng/mL
Measured, Autosampler for 12 h [1, 3]: 1687.80 ± 77.00 ng/mL
Measured, Room temperature for 4 h [1, 3]: 1601.59 ± 94.45 ng/mL
Measured, Three freeze-thaw cycles [1, 3]: 1525.21 ± 82.94 ng/mL
concentration at 0.5 h ([2]; male, SD, rat, in vivo, po): 73 ng/mL
AUC(0-inf) [2, 4]: 589 ± 303 ng·h/mL
AUC(0-t) [2, 4]: 550 ± 294 ng·h/mL
Cmax [2, 4]: 519 ± 197 ng/mL
Tmax [2, 4]: 0.06 ± 0.03 h
half-life [2, 4]: 4.25 ± 2.01 h
Structure (SMILES): O=c1cc(-c2ccccc2)oc2cc(O)cc(O)c12 [Chrysin, chrysin]

Measured, -80°C for 7 days ([1]; spiked concentration 40 ng/mL): 37.32 ± 1.14 ng/mL
Measured, Autosampler for 12 h ([1]; spiked concentration 40 ng/mL): 39.57 ± 2.48 ng/mL
Measured, Room temperature for 4 h ([1]; spiked concentration 40 ng/mL): 39.19 ± 3.16 ng/mL
Measured, Three freeze-thaw cycles ([1]; spiked concentration 40 ng/mL): 43.49 ± 1.13 ng/mL
Measured, -80°C for 7 days ([1]; spiked concentration 400 ng/mL): 409.88 ± 38.24 ng/mL
Measured, Autosampler for 12 h ([1]; spiked concentration 400 ng/mL): 419.16 ± 29.59 ng/mL
Measured, Room temperature for 4 h ([1]; spiked concentration 400 ng/mL): 419.25 ± 24.55 ng/mL
Measured, Three freeze-thaw cycles ([1]; spiked concentration 400 ng/mL): 402.45 ± 17.08 ng/mL
Measured, -80°C for 7 days [1, 5]: 6210.06 ± 535.52 ng/mL
Measured, Autosampler for 12 h [1, 5]: 5954.05 ± 243.71 ng/mL
Measured, Room temperature for 4 h [1, 5]: 6145.55 ± 285.25 ng/mL
Measured, Three freeze-thaw cycles [1, 5]: 6316.77 ± 188.36 ng/mL
concentration at 0.5 h [2, 6]: 879 ng/mL
AUC(0-t) [2, 7]: 43500 ng·h/mL
AUC(0-inf) [2, 8]: 44900 ng·h/mL
Cmax [2, 9]: 3320 ng/mL
half-life [2, 10]: 4.79 ± 2.28 h
Tmax [2, 11]: 10 ± 2 h
Structure (SMILES): O=C(O)[C@H]1O[C@@H](Oc2cc(O)c3c(=O)cc(-c4ccccc4)oc3c2)[C@H](O)[C@@H](O)[C@@H]1O [Chrysin-7-O-β-D-glucuronide, chrysin-7-O-β-D-glucuronide]

Structure (SMILES): O=C(O)[C@H]1O[C@@H](Oc2cc3oc(-c4ccccc4)cc(=O)c3c(O)c2O)[C@H](O)[C@@H](O)[C@@H]1O [Baicalin, baicalin]
Measured, -80°C for 7 days ([1]; spiked concentration 200 ng/mL): 196.55 ± 6.22 ng/mL
Measured, Autosampler for 12 h ([1]; spiked concentration 200 ng/mL): 197.37 ± 12.83 ng/mL
Measured, Room temperature for 4 h ([1]; spiked concentration 200 ng/mL): 197.18 ± 11.27 ng/mL
Measured, Three freeze-thaw cycles ([1]; spiked concentration 200 ng/mL): 191.59 ± 7.20 ng/mL
Measured, -80°C for 7 days [1, 12]: 2100.51 ± 51.69 ng/mL
Measured, Autosampler for 12 h [1, 12]: 1919.30 ± 46.13 ng/mL
Measured, Room temperature for 4 h [1, 12]: 2105.21 ± 73.11 ng/mL
Measured, Three freeze-thaw cycles [1, 12]: 1965.30 ± 64.97 ng/mL
Measured, -80°C for 7 days [1, 13]: 34521.83 ± 3366.83 ng/mL
Measured, Autosampler for 12 h [1, 13]: 31375.83 ± 425.60 ng/mL
Measured, Room temperature for 4 h [1, 13]: 30814.68 ± 1603.40 ng/mL
Measured, Three freeze-thaw cycles [1, 13]: 32953.20 ± 2649.23 ng/mL
concentration at 0.5 h [2, 6]: 10400 ng/mL
AUC(0-t) [2, 7]: 257000 ng·h/mL
AUC(0-inf) [2, 8]: 264000 ng·h/mL
Cmax [2, 9]: 13400 ng/mL
half-life [2, 10]: 9.14 ± 1.15 h
Tmax [2, 11]: 0.67 ± 0.13 h
Shape of plasma concentration-time curve ([2]; rat plasma after oral OS extract): significant bimodal phenomena; also recorded: clear bimodal phenomena
AUC(0-t) ([2]; rat plasma, oral 3 g/kg OS extract, n = 6, mean ± SD): significantly higher than that of the others
